Test results published in patent publication US20240316051A1, “A PHARMACEUTICAL COMBINATION AND USE THEREOF” (Ascentage Pharma (Suzhou) Co., Ltd., priority 2021, published 2024).

Target: T1, EED (1-441)-His protein (Homo sapiens, UniProt O75530)
T1 construct: 20 nM EED (1-441)-His protein
Assay: EED-H3K27Me3 peptide competition binding assay by AlphaScreen
Conditions: IC50 class, Table 4B, read-out: Alpha screen
Method in brief: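 EED(1-441)-His was preincubated 15 min with compound, then biotin-H3K27Me3(19-33) peptide added for 30 min; both were added as 20 nM solutions in 25 mM HEPES pH 8, 0.02% Tween-20, 0.5% BSA. Ni-chelate acceptor and streptavidin donor beads (10 μg/ml each final) were added for 1 h in the dark at RT. Signal read at 615 nm (680 nm excitation), normalised to controls and fitted to dose-response for IC50.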

T1 sequence (O75530 whole entry): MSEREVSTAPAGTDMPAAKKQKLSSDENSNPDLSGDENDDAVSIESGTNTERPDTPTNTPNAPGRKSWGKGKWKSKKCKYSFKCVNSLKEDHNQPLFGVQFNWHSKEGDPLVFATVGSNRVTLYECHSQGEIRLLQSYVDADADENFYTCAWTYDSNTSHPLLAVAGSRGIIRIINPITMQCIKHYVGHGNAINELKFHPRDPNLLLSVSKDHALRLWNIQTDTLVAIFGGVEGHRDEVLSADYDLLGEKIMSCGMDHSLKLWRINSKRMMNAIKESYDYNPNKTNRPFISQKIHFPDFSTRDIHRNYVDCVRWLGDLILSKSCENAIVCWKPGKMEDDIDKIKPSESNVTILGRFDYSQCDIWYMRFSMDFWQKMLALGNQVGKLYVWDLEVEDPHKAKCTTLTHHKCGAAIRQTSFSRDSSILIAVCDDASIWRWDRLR

Row | SMILES | IC50 [nM]
1 | CCc1ccc2c(n1)CN(CC(C)(F)F)C(=O)c1ncn3c(NCc4c(F)ccc5c4CCO5)ncc-2c13 [E 16, 4-(2,2-difluoropropyl)-7-ethyl-12-(((5-fluoro-2,3-dihydrobenzofuran-4-yl)methyl)amino)-4,5-dihydro-3H-2,4,6,11,12a-pentaazabenzo[4,5]cycloocta [1,2,3-cd]inden-3-one] | < 10
2 | [2H]C([2H])(Nc1ncc2c3c(ncn13)C(=O)N(CC(F)(F)F)Cc1cc(C(=O)N(C)C)ccc1-2)c1c(F)ccc2c1CCO2 [E 24, 12-(((5-fluoro-2,3-dihydrobenzofuran-4-yl)methyl-d2)amino)-N,N-dimethyl-3-oxo-4-(2,2,2-trifluoroethyl)-4,5-dihydro-3H-2,4,11,12a-tetraazabenzo[4, 5]cycloocta[1,2,3-cd]indene-7-carboxamide] | 10 to 100
3 | O=C1NCCc2ccccc2-c2cnc(NCc3c(F)ccc4c3CCO4)n3cnc1c23 [E 28, 13-(((5-fluoro-2,3-dihydrobenzofuran-4-yl)methyl)amino)-5,6-dihydro-2,4, 12, 13a-tetraazabenzo[4,5] cyclonona[1,2,3-cd]inden-3(4H)-one] | 10 to 100
4 | Cc1ccc2c(n1)CCNC(=O)c1ncn3c(NCc4c(F)ccc5c4CCO5)ncc-2c13 [E 29, 13-(((5-fluoro-2,3-dihydrobenzofuran-4-yl)methyl)amino)-8-methyl-5,6-dihydro-2,4,7,12,13a-pentaazabenzo[4,5]cyclonona[1,2,3-cd]inden-3(4H)-one] | 10 to 100
5 | Cc1ccc2c(n1)CCN(CC(F)(F)F)C(=O)c1ncn3c(NCc4c(F)ccc5c4CCO5)ncc-2c13 [E 30, 13-(((5-fluoro-2,3-dihydrobenzofuran-4-yl)methyl)amino)-8-methyl-4-(2,2,2-trifluoroethyl)-5,6-dihydro-2,4,7,12,13a-pentaazabenzo[4,5] cyclonona[1,2,3-cd]inden-3(4H)-one] | 10 to 100
6 | CC(C)N1CCc2cc(C(F)(F)F)ncc2-c2cnc(NCc3c(F)ccc4c3CCO4)n3cnc(c23)C1=O [E 31, 13-(((5-fluoro-2,3-dihydrobenzofuran-4-yl)methyl)amino)-4-isopropyl-8-(trifluoromethyl)-5,6-dihydro-2,4,9,12,13a-pentaazabenzo[4,5]cyclonona[1,2,3-cd]inden-3(4H)-one] | 10 to 100
7 | Cc1onc2c1Cc1cc(C(F)(F)F)ncc1-c1cnc(NCc3c(F)ccc4c3CCO4)n3cnc-2c13 [E 35, N-((5-fluoro-2,3-dihydrobenzofuran-4-yl)methyl)-5-methyl-8-(trifluoromethyl)-6H-4-oxa-2,3,9,12, 13a-pentaazabenzo[4,5]cyclopenta[7,8]cycloocta [1,2,3-cd]inden-13-amine] | 10 to 100
8 | Cc1ccc2c(n1)Cc1conc1-c1ncn3c(NCc4c(F)ccc5c4CCO5)ncc-2c13 [E 36, N-((5-fluoro-2,3-dihydrobenzofuran-4-yl)methyl)-8-methyl-6H-4-oxa-2,3,7,12,13a-pentaazabenzo [4,5]cyclopenta[7,8]cycloocta[1,2,3-cd]inden-13-amine] | 10 to 100
9 | O=C1c2ncn3c(NCc4c(F)ccc5c4CCO5)ncc(c23)-c2ccc(C3CCOCC3)nc2CN1CC(F)(F)F [E 45, 12-(((5-fluoro-2,3-dihydrobenzofuran-4-yl)methyl)amino)-7-(tetrahydro-2H-pyran-4-yl)-4-(2,2,2-trifluoroethyl)-4,5-dihydro-3H-2,4,6,11,12a-pentaazabenzo[4,5]cycloocta[1,2,3-cd]inden-3-one] | < 10
10 | CC(C)(C)c1cc2c(cn1)-c1cnc(NCc3c(F)ccc4c3CCO4)n3cnc(c13)C(=O)N(CC(F)(F)F)C2 [E 46, 7-(tert-butyl)-12-(((5-fluoro-2,3-dihydrobenzofuran-4-yl)methyl)amino)-4-(2,2,2-trifluoroethyl)-4,5-dihydro-3H-2,4,8,11,12a-pentaazabenzo[4,5]cyclo octa[1,2,3-cd]inden-3-one] | < 10

Further lines, results first:

Row | IC50 [nM] | SMILES
11 | < 10 | CC(C)c1ccc2c(n1)CN(CC(F)(F)F)C(=O)c1ncn3c(NCc4c(F)ccc5c4CCO5)ncc-2c13 [E 15, 12-(((5-fluoro-2,3-dihydrobenzofuran-4-yl)methyl)amino)-7-isopropyl-4-(2,2,2-trifluoroethyl)-4,5-dihydro-3H-2,4,6,11,12a-pentaazabenzo[4,5] cycloocta[1,2,3-cd]inden-3-one]
12 | < 10 | Cc1cnc2n1Cc1ncccc1-c1cnc(NCc3c(F)ccc4c3CCO4)n3cnc-2c13 [E 17, N-((5-fluoro-2,3-dihydrobenzofuran-4-yl)methyl)-5-methyl-6H-2,3,5a,7,12,13a-hexaazabenzo[4,5] cyclopenta[7,8]cycloocta[1,2,3-cd]inden-13-amine]
13 | < 10 | Cc1ccc2c(n1)Cn1c(C)cnc1-c1ncn3c(NCc4c(F)ccc5c4CCO5)ncc-2c13 [E 18, N-((5-fluoro-2,3-dihydrobenzofuran-4-yl)methyl)-5,8-dimethyl-6H-2,3,5a,7,12,13a-hexaazabenzo[4, 5]cyclopenta[7,8]cycloocta[1,2,3-cd]inden-13-amine]
14 | 10 to 100 | Fc1ccc2c(c1CNc1ncc3c4c(ncn14)-c1nccn1Cc1nc(C(F)(F)F)ccc1-3)CCO2 [E 32, N-((5-fluoro-2,3-dihydrobenzofuran-4-yl)methyl)-8-(trifluoromethyl)-6H-2,3,5a,7,12,13a-hexaaza-benzo[4,5]cyclopenta[7,8]cycloocta[1,2,3-cd]inden-13-amine]
15 | 10 to 100 | Fc1ccc2c(c1CNc1ncc3c4c(ncn14)-c1nccn1Cc1cc(C(F)(F)F)ncc1-3)CCO2 [E 33, N-((5-fluoro-2,3-dihydrobenzofuran-4-yl)methyl)-8-(trifluoromethyl)-6H-2,3,5a,9,12,13a-hexaaza-benzo[4,5]cyclopenta[7,8]cycloocta[1,2,3-cd]inden-13-amine]
16 | 10 to 100 | Cc1ccc2c(n1)Cn1ccnc1-c1ncn3c(NCc4c(F)ccc5c4CCO5)ncc-2c13 [E 34, N-((5-fluoro-2,3-dihydrobenzofuran-4-yl)methyl)-8-methyl-6H-2,3,5a,7,12,13a-hexaazabenzo[4,5] cyclopenta[7,8]cycloocta[1,2,3-cd]inden-13-amine]
17 | 10 to 100 | CCc1cnc2n1Cc1cc(C(F)(F)F)ncc1-c1cnc(NCc3c(F)ccc4c3CCO4)n3cnc-2c13 [E 37, 5-ethyl-N-((5-fluoro-2,3-dihydrobenzofuran-4-yl)methyl)-8-(trifluoromethyl)-6H-2,3,5a,9,12,13a-hexaazabenzo[4,5]cyclopenta[7,8]cycloocta[1,2,3-cd]inden-13-amine]
18 | 10 to 100 | CCc1cnc2n1Cc1nc(C)ccc1-c1cnc(NCc3c(F)ccc4c3CCO4)n3cnc-2c13 [E 38, 5-ethyl-N-((5-fluoro-2,3-dihydrobenzofuran-4-yl)methyl)-8-methyl-6H-2,3,5a,7,12,13a-hexaazabenzo [4,5]cyclopenta[7,8]cycloocta[1,2,3-cd]inden-1 3-amine]
19 | 10 to 100 | Cc1ccc2c(n1)CN(CC(F)(F)F)C(=O)c1ncn3c(NCc4c(F)ccc5c4CCCO5)ncc-2c13 [E 39, 12-(((6-fluorochroman-5-yl)methyl)amino)-7-methyl-4-(2,2,2-trifluoroethyl)-4,5-dihydro-3H-2,4,6, 11,12a-pentaazabenzo[4,5]cycloocta[1,2,3-cd] inden-3-one]
